Assay results as given in patent US5679638A, “Method for treating a tumor with a chemotherapeutic agent” (Biopure Corporation, priority 1993, dated 1997).
Values joined by “and” are separate entries in the source; they are usually repeats but may differ in a detail not shown here. Identical values can stand only once. Counter-ions that a name gives are not always drawn.

Columns and labels:
[1] = test system: Lewis lung carcinoma lung metastases; test: Lung metastases of Lewis lung carcinoma; format: in vivo, mouse (male C57BL); design: Lung Metastases: unit not given here
Procedure: (§1) The Lewis lung tumor was carried in male C57BL mice (Taconic Laboratories, Germantown, N.Y.). For the experiments, 2×10^6 tumor cells prepared from a brei of several stock tumors were implanted subctaneously into the legs of male mice aged 8-10 weeks. […] Animals bearing Lewis lung tumors were treated daily with intraperitoneal Mino (10 mg/kg), Diflun (15 mg/kg) or Sulin (15 mg/kg) on days 4-18 following tumor implantation. When the tumors had reached a volume of approximately 100 mm^3 (day 7 after tumor cell implantation), cytotoxic therapy was initiated.
Therapy consisted of treatment with an antitumor alkylating agent, an antitumor antimetabolite, a non-steroidal anti-inflammatory drug (NSAID) and/or UPHS. […] CTX therapy consisted of three successive 150 mg/kg CTX doses administered by intraperitoneal injections on days 7, 9 and 11. BCNU therapy consisted of three successive 15 mg/Kg BCNU doses administered by intraperitoneal injections on days 7, 9 and 11. Therapy with the antimetabolite 5-fluorouracil(5-FU) consisted of 4 successive 40 mg/kg 5-FU doses administered by intraperitoneal injections daily on days 7 to 11. The 5-FU was purchased from Sigma Chemical Co., St. Louis, Mo. Fourteen doses of 10 mg/kg of NSAID were administered daily by intraperitoneal injections on days 4 to 18. UPHS was injected into the tail vein in 8 ml/kg doses daily on days 7-11. […]

[2] = test system: Lewis lung carcinoma; test: Lewis lung carcinoma growth delay; format: in vivo, mouse (male C57BL); conditions: for Lewis lung carcinoma growth delay, Mean Days: NSAID days 4-18
Procedure: as §1
Therapy consisted of treatment with an antitumor alkylating agent, an antitumor antimetabolite, a non-steroidal anti-inflammatory drug (NSAID) and/or UPHS. […] CTX therapy consisted of three successive 150 mg/kg CTX doses administered by intraperitoneal injections on days 7, 9 and 11. BCNU therapy consisted of three successive 15 mg/Kg BCNU doses administered by intraperitoneal injections on days 7, 9 and 11. Therapy with the antimetabolite 5-fluorouracil(5-FU) consisted of 4 successive 40 mg/kg 5-FU doses administered by intraperitoneal injections daily on days 7 to 11. The 5-FU was purchased from Sigma Chemical Co., St. Louis, Mo. Fourteen doses of 10 mg/kg of NSAID were administered daily by intraperitoneal injections on days 4 to 18. UPHS was injected into the tail vein in 8 ml/kg doses daily on days 7-11.
The progress of each tumor was measured thrice weekly until it had reached a volume of 500 mm^3. Tumor growth delay was calculated as the number of days required for each treated tumor to reach a volume of 500 mm^3 as compared with untreated control tumors. Each treatment group comprised six animals and the experiment was repeated three times.
On the twentieth day after the subcutaneous tumor implantation, the delay in Lewis Lung Carcinoma tumor growth was evaluated. Tumor growth delay data is presented as the mean value ±SE calculated for the treatment group as compared with the control group.

[3] = test system: intracranial 9L gliosarcoma; test: Life span of rats with intracranial 9L gliosarcoma; format: in vivo, rat (male Fischer 344)
Procedure: (§2) The 9L gliosarcoma (9L) cells were obtained as a gift of 9L/SF gliosarcoma cells from Dr. Dennis Dean, University of California, San Francisco. These cells were maintained in culture in .varies.-MEM (Grand Island Biological Co., Grand Island, N.Y.) and supplemented with 10% fetal bovine serum (Sterile Systems, Inc., Logan, Utah) and with antibiotics. The 9L cells (4×10^4) in 10 μL of media without serum were implanted intracranially in male Fischer 344 rats (Taconic Farms, Germantown, N.Y.) weighing 200-250 gm on day 0. Each rat was anesthetized with sodium pentobarbital. A midline scalp incision was made and a hole was bored through the skull with 23 gauge needle at a point 2 mm lateral to the midline. The cell suspension was injected into the right frontal lobe at a depth of 3 mm from the dural surface. The needle was removed and the hole filled with dental cement. The scalp was sealed with a surgical clip. Two days later 9L cells (2×10^6) were implanted subcutaneously into the flank of each animal. When the tumors were approximately 100 mm^3 in volume, 7 days after tumor cell implantation, 8 ml/kg of UPHS was injected via the tail vein. After injecting the UPHS, administration of chemotherapeutic agents was initiated. […] BCNU therapy consisted of three 15 mg/kg BCNU doses administered by intraperitoneal injection days 7, 9 and 11. CTX and ifosfamide (IFOS) therapy consisted of three 100 mg/kg CTX or IFOS doses administered by intraperitoneal injection on days 7, 9 and 11. For the BCNU, CTX and IFOS therapies, UPHS was intravenously administered prior to each chemotherapeutic agent injection on days 7, 9 and 11. The IFOS was purchased from the Dana-Farber Cancer Institute. Survival of animals was monitored daily. Animals that were moribund or unable to reach food or water were killed by CO2 inhalation.
The effect of the treatments on the growth of the intracranial tumor was determined by the increase in life span of treated groups compared with the untreated controls. A percentage increase in life span of 25% or more is therapeutically significant.

[4] = test system: subcutaneous 9L gliosarcoma; test: Subcutaneous 9L gliosarcoma tumor growth delay; format: in vivo, rat (male Fischer 344)
Procedure: as §2
The progress of each subcutaneous tumor was measured 3 times/week until it reached a volume of 500 mm^3. Tumor growth delay was calculated as the number of days for each individual tumor to reach 500 mm^3 compared with untreated controls. Each treatment group had 4 animals and the experiment was repeated twice. Days of tumor growth delay are the mean ±SE for the treatment group compared with the control.

[5] = WITH UPHS (8 ml/kg daily days 7-11), CDDP or PAM 10 mg/kg, CTX 3 x 150, BCNU 3 x 15, 5-FU 40 mg/kg
[6] = WITHOUT UPHS, CDDP or PAM 10 mg/kg day 7, CTX 3 x 150, BCNU 3 x 15 mg/kg days 7, 9, 11, 5-FU 40 mg/kg
[7] = relative statement among BCNU, CTX, CDDP, IFOS

Compound	Lung Metastases ([1]; WITH UPHS)	Lung Metastases (% Large) ([1]; WITH UPHS) [%]	Lung Metastases ([1]; WITHOUT UPHS)	Lung Metastases (% Large) ([1]; WITHOUT UPHS) [%]	Lewis lung carcinoma growth delay, Mean Days [2, 5] [days]	Lewis lung carcinoma growth delay, Mean Days [2, 6] [days]	% Increased from Control (life span) ([3]; Table II, vs untreated control)	Survival Days ([3]; Table II, control 26 ± 2.2 days, CDDP 8 mg/kg day 7, BCNU 3 x 15, CTX or IFOS 3 x 100 mg/kg days 7, 9, 11, UPHS 8 ml/kg)	Increase in life span with UPHS prior to the drug therapy ([3]; UPHS prior to drug, vs untreated control) [%]	Significance of increase in life span, drug alone ([3]; drug alone, 25% or more is therapeutically significant)	Increase in therapeutic response upon addition of UPHS ([3]; intracranial (life span) and subcutaneous (growth delay) 9L tumors)	Effectiveness against intracranial 9L tumors [3, 7]	Subcutaneous 9L Tumor Growth Delay, Mean Days ([4]; Table III, days to 500 mm^3 vs control (19.5 ± 0.5 days), CDDP 8 mg/kg day 7, BCNU 3 x 15, CTX or IFOS 3 x 100 mg/kg, UPHS 8 ml/kg) [days]	Increase in tumor growth delay by prior administration of UPHS ([4]; UPHS + drug vs drug alone) [fold]	Effectiveness against subcutaneous 9L tumors [4, 7]	Increase of growth delay by addition of UPHS ([2]; drug + UPHS vs drug)	Effect of addition of NSAIDs (with or without UPHS) to cytotoxic agents on growth delay ([2]; mouse, in vivo)
O=C(O)c1cc(-c2ccc(F)cc2F)ccc1O [Diflun, Diflunisal]	20	55	20	51	0.9 ± 0.3	0.3 ± 0.2	–	–	–	–	–	–	–	–	–	–	–
CN(C)c1ccc(O)c2c1C[C@H]1C[C@H]3[C@H](N(C)C)C(O)=C(C(N)=O)C(=O)[C@@]3(O)C(O)=C1C2=O [Mino, minocycline hydrochloride]	20	65	20	50	1.0 ± 0.4	0.8 ± 0.3	–	–	–	–	–	–	–	–	–	–	–
O=P1(NCCCl)OCCCN1CCCl (centres unmarked) [IFOS, ifosfamide]	–	–	–	–	–	–	19% and 38%	30.9 days and 35.9 days	38	did not reach significance	greatest increases in therapeutic response upon addition of UPHS	least effective treatments for intracranial 9L tumors	10.4 ± 0.9	1.4	very effective treatments for subcutaneously growing 9L tumors	–	–
O=c1[nH]cc(F)c(=O)[nH]1 [5-FU, 5-fluorouracil]	15	40	21	52	6.3 ± 0.5	5.4 ± 0.4	–	–	–	–	–	–	–	–	–	also enhanced, to a lesser degree	–
CC1=C(CC(=O)O)c2cc(F)ccc2/C1=C\c1ccc([S+](C)[O-])cc1 (centres unmarked) [Sulin, Sulindac]	21	57	19	55	0.5 ± 0.3	1.2 ± 0.4	–	–	–	–	–	–	–	–	–	–	providing the best NSAID results
